Test results: patent publication US5177078A, “Piperazine derivatives” (John Wyeth & Brother Limited, priority 1990, dated 1993)

Columns and labels:
5-HT1A receptor [1] = molecular target: T1, 5-HT1A receptor (Rattus norvegicus, UniProt P19327); experiment: 5-HT1A receptor binding activity in rat hippocampal membrane homogenate; conditions: method of Alexander and Wood
T1 construct: syndrome in the rat; from tissue; host or cells: living rat (endogenous receptor of the central nervous system)
T1 sequence (P19327 1-422): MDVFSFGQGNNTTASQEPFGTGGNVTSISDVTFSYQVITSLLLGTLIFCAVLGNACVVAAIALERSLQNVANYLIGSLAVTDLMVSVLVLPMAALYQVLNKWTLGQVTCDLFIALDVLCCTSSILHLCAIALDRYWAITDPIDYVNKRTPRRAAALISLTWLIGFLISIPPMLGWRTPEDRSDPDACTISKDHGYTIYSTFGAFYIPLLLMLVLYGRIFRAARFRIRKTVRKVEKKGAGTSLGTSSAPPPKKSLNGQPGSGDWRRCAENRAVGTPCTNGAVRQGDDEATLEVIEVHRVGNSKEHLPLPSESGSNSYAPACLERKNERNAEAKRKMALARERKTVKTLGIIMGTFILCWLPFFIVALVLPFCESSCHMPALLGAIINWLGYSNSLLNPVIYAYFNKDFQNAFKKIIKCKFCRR
Procedure: The compounds of the invention are tested for 5-HT1A receptor binding activity in rat hippocampal membrane homogenate by the method of B S Alexander and M D Wood, J Pharm Pharmacol, 1988, 40, 888-891.

5-HT1A receptor [2] = molecular target: T1, 5-HT1A receptor; experiment: antagonism of 8-OH DPAT syndrome in the rat (5-HT1A receptor antagonism activity); format: in vivo
Procedure: The compounds are tested for 5-HT1A receptor antagonism activity in a test involving the antagonism of 8-hydroxy-2-(di-n-propylamino)-tetralin (8-OH DPAT) syndrome in the rat. (R,S)-1-(2-Methoxyphenyl)-4-[2-(IH-imidazol-1-yl) -2-(phenyl)ethylpiperazine had MED of 1 mg/kg subcut and 10 mg/kg p.o when tested in this procedure.

IC50 (5-HT1A receptor [1]): 0.0158 µM | MED (5-HT1A receptor [2]; p.o): 10 mg/kg | MED (5-HT1A receptor [2]; subcut): 1 mg/kg
SMILES: COc1ccccc1N1CCN(CC(c2ccccc2)n2ccnc2)CC1 (stereo not drawn) [Example 1, 1-(2-Methoxyphenyl)-4-[2-(1H-imidazol-1-yl)-2-(phenyl)ethyl]piperazine]
